# Measurements taken from patent US20250197372A1 (priority 2020, published 2025).
# Like-named read-outs stand apart in the source and are kept apart here.
# Legend:
# Assay type in all cases: biochemical
# [1] = target: rat maltase (partially purified alpha-glucosidase from intestinal rat powder); test: Intestinal alpha-glucosidase assay, maltose substrate (Glucose GO Kit)
# Protocol: (§1) Intestinal alpha-glucosidases (rat maltase and sucrase): Intestinal alpha-glucosidases act upon 1,4-alpha-glucoside bonds, breaking down disaccharides to glucose. To perform this assay, partially purified alpha-glucosidase from intestinal rat powder was incubated for 60 minutes at 37° C. with multiple dilutions of test compounds. Maltose or Sucrose respectively was then introduced as substrate to the mixture and incubated for 30 minutes at 37° C. The reaction was stopped by a 5-minute incubation at 90° C. and the resultant glucose production is detected using Sigma's Glucose GO Kit. Percent inhibition was then plotted as a function of concentration for each test compound. The IC50 was determined using a 4-PL curve fit and serves as the measure of relative inhibition of each test compound (see Table 3).
# [2] = target: rat sucrase (partially purified alpha-glucosidase from intestinal rat powder) (Rattus norvegicus, UniProt P23739); test: Intestinal alpha-glucosidase assay, sucrose substrate (Glucose GO Kit)
# Protocol: as §1
# [3] = target: T1, recombinant alpha-glucosidase II (murine full-length glucosidase II, alpha and beta subunits, Glu 2) (Mus musculus, UniProt Q8BHN3); test: Alpha-glucosidase II assay (4-methylumbelliferyl-alpha-D-pyranoside substrate, fluorescence)
# T1 construct: made in house; host or cells: HEK-293T cells transduced with BacMam viruses (75% alpha, 25% beta); protein harvested from culture supernatant
# [4] = target: recombinant human GAA (acid alpha-glucosidase) (Homo sapiens, UniProt P10253); test: Acid alpha-glucosidase (GAA) assay (4-methylumbelliferyl-alpha-D-pyranoside substrate, fluorescence)
# Protocol: Acid alpha-glucosidase (GAA): To analyze inhibitory effects of a test compound, commercially available recombinant human GAA was incubated with multiple dilutions of test compound for 60 minutes at 37° C. 4-methylumbelliferyl-alpha-D-pyranoside was then introduced to the mixture as the substrate. 1,4-methyllumbelliferone is generated, and after an incubation for 20 minutes at 37° C., the reaction was stopped with the stop solution (0.5M glycine 0.3M NaOH pH 10). 1,4-methyllumbelliferone is detected by fluorescence (excitation at 365 nm, emission at 440 nm). Relative fluorescence compared to untreated enzymatic activity and test compound concentration is plotted as a function of percent inhibition. The IC50 is determined using a 4-PL curve fit as the measure of relative inhibitory activity of each test compound (see Table 3).
# [5] = target: T2, recombinant human GBA (beta-glucocerebrosidase) (Homo sapiens, UniProt P04062); test: Beta-glucocerebrosidase (GBA, glucosylceramidase) assay (4-methylumbelliferyl-beta-D-pyranoside substrate, fluorescence)
# T2 sequence (P04062 40-536): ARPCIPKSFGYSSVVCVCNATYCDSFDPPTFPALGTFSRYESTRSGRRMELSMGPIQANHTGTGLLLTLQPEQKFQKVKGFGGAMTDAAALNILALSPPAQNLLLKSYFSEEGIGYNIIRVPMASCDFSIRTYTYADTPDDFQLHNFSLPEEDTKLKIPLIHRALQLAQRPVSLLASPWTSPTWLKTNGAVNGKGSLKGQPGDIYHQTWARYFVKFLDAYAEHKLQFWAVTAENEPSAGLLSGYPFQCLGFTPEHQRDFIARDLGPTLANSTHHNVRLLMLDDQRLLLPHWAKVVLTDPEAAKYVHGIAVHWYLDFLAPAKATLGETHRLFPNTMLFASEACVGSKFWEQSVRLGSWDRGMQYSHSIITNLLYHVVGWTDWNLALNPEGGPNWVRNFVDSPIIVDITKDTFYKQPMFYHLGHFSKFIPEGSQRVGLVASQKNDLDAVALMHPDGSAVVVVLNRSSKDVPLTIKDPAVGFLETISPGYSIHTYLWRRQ
# Protocol: Beta-glucocerebrosidase (GBA, also referred to glucosylceramidase): To analyze inhibitory effects of a test compound, commercially available recombinant human GBA was incubated with multiple dilutions of test compound for 60 minutes at 37° C. 4-methylumbelliferyl-beta-D-pyranoside was then introduced to the mixture as substrate. Following incubation for 60 minutes at 37° C., 1,4-methyllumbelliferone was generated, and the reaction was stopped with the stop solution (0.5 M glycine; 0.3 M NaOH, pH 10). 1,4-methyllumbelliferone was detected by fluorescence (excitation at 365 nm, emission at 440 nm). Relative fluorescence compared to untreated enzymatic activity and test compound concentration is then plotted as a function of percent inhibition. The IC50 was determined using a 4-PL curve fit as the measure of relative inhibitory activity of each test compound (see Table 3).
# [6] = Glucosidase 2, read-out: Glu2 IC50
# Chain of rat sucrase (partially purified alpha-glucosidase from intestinal rat powder) (P23739 whole entry): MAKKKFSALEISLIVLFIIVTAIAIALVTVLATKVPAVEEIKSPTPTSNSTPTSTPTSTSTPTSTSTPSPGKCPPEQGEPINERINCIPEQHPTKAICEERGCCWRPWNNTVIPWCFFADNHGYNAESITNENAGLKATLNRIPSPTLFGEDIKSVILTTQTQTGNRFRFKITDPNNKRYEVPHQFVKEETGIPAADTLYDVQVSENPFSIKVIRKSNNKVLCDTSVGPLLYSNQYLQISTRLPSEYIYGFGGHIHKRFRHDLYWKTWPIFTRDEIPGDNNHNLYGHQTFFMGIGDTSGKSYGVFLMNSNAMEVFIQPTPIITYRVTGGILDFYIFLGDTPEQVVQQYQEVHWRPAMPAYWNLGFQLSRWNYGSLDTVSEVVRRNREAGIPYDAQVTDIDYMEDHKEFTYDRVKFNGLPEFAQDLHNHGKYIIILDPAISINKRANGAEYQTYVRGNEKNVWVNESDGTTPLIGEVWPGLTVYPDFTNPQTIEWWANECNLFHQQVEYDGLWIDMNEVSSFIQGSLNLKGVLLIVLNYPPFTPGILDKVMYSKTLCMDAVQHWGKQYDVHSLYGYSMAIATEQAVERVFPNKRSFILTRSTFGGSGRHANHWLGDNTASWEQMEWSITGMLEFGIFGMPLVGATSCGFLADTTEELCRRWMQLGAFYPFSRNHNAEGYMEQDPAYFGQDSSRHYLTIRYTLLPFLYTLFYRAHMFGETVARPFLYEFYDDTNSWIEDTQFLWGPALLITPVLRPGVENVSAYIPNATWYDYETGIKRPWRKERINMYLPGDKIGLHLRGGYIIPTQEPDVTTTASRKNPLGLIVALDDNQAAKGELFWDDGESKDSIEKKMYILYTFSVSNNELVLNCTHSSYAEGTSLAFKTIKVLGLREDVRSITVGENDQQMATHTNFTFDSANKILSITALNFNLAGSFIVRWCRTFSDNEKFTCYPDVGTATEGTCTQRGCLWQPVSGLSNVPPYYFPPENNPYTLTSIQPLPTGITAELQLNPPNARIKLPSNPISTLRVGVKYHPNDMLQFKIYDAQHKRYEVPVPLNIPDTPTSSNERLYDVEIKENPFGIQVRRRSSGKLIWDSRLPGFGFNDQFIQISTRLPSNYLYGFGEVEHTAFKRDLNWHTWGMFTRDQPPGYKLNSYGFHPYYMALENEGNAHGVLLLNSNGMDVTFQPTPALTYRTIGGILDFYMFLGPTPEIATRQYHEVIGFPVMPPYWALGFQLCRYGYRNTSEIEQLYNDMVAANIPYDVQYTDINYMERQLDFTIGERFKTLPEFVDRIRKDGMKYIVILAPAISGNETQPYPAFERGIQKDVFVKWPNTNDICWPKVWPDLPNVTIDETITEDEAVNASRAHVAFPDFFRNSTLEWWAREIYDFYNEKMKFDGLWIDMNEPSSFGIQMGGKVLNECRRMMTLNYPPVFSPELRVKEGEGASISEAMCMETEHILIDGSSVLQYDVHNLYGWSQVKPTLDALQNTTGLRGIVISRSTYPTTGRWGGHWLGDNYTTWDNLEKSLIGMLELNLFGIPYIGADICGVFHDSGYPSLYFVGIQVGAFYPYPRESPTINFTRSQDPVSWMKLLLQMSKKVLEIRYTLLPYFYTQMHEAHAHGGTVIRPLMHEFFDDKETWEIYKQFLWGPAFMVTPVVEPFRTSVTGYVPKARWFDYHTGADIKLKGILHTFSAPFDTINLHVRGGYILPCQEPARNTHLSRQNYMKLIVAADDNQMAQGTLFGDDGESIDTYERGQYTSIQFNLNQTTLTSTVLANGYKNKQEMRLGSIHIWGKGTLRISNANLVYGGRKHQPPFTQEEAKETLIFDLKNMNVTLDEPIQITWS
# T1 sequence (O08795 15-521): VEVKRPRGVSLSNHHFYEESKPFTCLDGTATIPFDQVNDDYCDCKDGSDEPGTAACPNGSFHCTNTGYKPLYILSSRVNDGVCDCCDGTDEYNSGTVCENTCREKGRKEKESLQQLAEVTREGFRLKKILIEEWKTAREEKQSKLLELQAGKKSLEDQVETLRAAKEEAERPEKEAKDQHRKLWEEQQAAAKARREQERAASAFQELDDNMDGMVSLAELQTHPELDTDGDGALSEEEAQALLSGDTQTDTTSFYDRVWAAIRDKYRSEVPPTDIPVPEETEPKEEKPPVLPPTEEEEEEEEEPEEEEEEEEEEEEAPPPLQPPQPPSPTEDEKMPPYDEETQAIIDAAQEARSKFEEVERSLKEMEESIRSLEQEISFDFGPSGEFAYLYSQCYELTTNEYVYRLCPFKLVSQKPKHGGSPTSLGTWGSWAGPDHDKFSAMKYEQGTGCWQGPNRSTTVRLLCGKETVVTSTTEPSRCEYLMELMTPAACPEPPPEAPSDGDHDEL
# T1 sequence (Q8BHN3 33-944): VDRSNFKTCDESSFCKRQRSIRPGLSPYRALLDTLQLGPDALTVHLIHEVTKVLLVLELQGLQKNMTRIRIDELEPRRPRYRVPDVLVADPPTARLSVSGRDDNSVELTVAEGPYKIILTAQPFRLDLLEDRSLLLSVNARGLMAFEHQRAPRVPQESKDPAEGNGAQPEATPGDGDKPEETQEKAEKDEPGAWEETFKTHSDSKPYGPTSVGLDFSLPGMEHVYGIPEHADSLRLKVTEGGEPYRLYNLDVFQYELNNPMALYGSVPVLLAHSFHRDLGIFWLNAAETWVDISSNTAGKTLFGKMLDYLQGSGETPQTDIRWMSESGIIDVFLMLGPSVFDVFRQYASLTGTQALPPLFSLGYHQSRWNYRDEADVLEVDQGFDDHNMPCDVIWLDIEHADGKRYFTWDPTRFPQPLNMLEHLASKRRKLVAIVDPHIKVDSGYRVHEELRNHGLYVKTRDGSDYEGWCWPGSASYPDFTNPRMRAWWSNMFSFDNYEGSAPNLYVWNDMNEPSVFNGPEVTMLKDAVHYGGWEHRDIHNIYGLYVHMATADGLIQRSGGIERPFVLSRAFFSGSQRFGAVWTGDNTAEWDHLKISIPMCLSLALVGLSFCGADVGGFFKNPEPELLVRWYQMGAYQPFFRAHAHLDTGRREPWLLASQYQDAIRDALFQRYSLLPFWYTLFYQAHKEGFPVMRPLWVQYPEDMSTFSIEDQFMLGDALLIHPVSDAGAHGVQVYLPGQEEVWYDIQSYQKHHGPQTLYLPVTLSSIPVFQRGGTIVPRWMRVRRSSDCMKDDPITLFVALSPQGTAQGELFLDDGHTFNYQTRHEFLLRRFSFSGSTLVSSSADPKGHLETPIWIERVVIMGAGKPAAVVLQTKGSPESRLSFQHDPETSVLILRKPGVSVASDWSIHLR
smiles,measurement,setting,value
"COc1cc(NCCc2ccc(CCN3C[C@H](O)[C@@H](O)[C@H](O)[C@H]3CO)cc2)cc(-c2ncccn2)c1 [Compound 1156, (2R,3R,4R,5S)-2-(hydroxymethyl)-1-{2-[4-(2-{[3-methoxy-5-(pyrimidin-2-yl)phenyl]amino}ethyl)phenyl]ethyl}piperidine-3,4,5-triol]",IC50,[1],287 nM
same,IC50,[2],610 nM
same,IC50,[3]; [6],118 nM
same,IC50,[4],814 nM
same,IC50,[5],7130 nM
"CC(=O)Nc1cc(NCCCCCCN2C[C@H](O)[C@@H](O)[C@H](O)[C@H]2CO)cc(-c2ncccn2)c1 [Compound 1125, N-[3-(pyrimidin-2-yl)-5-({6-[(2R,3R,4R,5S)-3,4,5-trihydroxy-2-(hydroxymethyl)piperidin-1-yl]hexyl}amino)phenyl]acetamide]",IC50,[1],15 nM
same,IC50,[2],92 nM
same,IC50,[3]; [6],19 nM
same,IC50,[4],80 nM
same,IC50,[5],9690 nM
"CS(=O)(=O)Nc1ccc(NCCCCCCN2C[C@H](O)[C@@H](O)[C@H](O)[C@H]2CO)c([N+](=O)[O-])c1 [Compound 1300, N-[3-nitro-4-({6-[(2R,3R,4R,5S)-3,4,5-trihydroxy-2-(hydroxy-methyl)piperidin-1-yl]hexyl}amino)phenyl]methanesulfonamide]",IC50,[1],< 10 nM
same,IC50,[2],52 nM
same,IC50,[3]; [6],14 nM
same,IC50,[4],20 nM
same,IC50,[5],26 nM
"Cc1cc(NCc2cccc(CN3C[C@H](O)[C@@H](O)[C@H](O)[C@H]3CO)n2)cc(-c2ccc[nH]2)c1 [Compound 1335, (2R,3R,4R,5S)-2-(hydroxymethyl)-1-{[6-({[3-methyl-5-(1H-pyrrol-2-yl)phenyl]amino}methyl)pyridin-2-yl]methyl}piperidine-3,4,5-triol]",IC50,[1],231 nM
same,IC50,[2],321 nM
same,IC50,[3],> 100000 nM
same,IC50,[4],470 nM
same,IC50,[5],21500 nM
"Cc1cc(NCc2cccc(CN3C[C@H](O)[C@@H](O)[C@H](O)[C@H]3CO)c2)cc(-c2ncccn2)c1 [Compound 1035, (2R,3R,4R,5S)-2-(hydroxymethyl)-1-{[3-({[3-methyl-5-(pyrimidin-2-yl)phenyl]amino}methyl)phenyl]methyl}piperidine-3,4,5-triol]",IC50,[1],49 nM
same,IC50,[2],51 nM
same,IC50,[3]; [6],66500 nM
same,IC50,[4],5100 nM
same,IC50,[5],> 100000 nM
"Cc1cc(NCc2ccc(CN3C[C@H](O)[C@@H](O)[C@H](O)[C@H]3CO)cc2)cc(-c2cccnn2)c1 [Compound 1052, (2R,3R,4R,5S)-2-(hydroxymethyl)-1-{[4-({[3-methyl-5-(pyridazin-3-yl)phenyl]amino}methyl)phenyl]methyl}piperidine-3,4,5-trio]",IC50,[1],14 nM
same,IC50,[2],60 nM
same,IC50,[3]; [6],179 nM
same,IC50,[4],150 nM
same,IC50,[5],84500 nM
"[N-]=[N+]=Nc1ccc(NCCc2cncc(CCN3C[C@H](O)[C@@H](O)[C@H](O)[C@H]3CO)n2)c([N+](=O)[O-])c1 [Compound 1187, (2R,3R,4R,5S)-1-[2-(6-{2-[(4-azido-2-nitrophenyl)amino]ethyl}pyrazin-2-yl)ethyl]-2-(hydroxymethyl)piperidine-3,4,5-triol]",IC50,[1],1200 nM
same,IC50,[2],2050 nM
same,IC50,[3]; [6],3 nM
same,IC50,[4],615 nM
same,IC50,[5],16400 nM
"[N-]=[N+]=Nc1ccc(NCCn2cc(CCN3C[C@H](O)[C@@H](O)[C@H](O)[C@H]3CO)c3ccccc32)c([N+](=O)[O-])c1 [Compound 1177, (2R,3R,4R,5S)-1-[2-(1-{2-[(4-azido-2-nitrophenyl)amino]ethyl}-1H-indol-3-yl)ethyl]-2-(hydroxymethyl)piperidine-3,4,5-triol]",IC50,[1],32 nM
same,IC50,[2],883 nM
same,IC50,[3]; [6],65 nM
same,IC50,[4],5540 nM
same,IC50,[5],3320 nM
"OC[C@@H]1[C@@H](O)[C@H](O)[C@@H](O)CN1CCc1ccc(CCNc2cc(Cl)cc(-c3ncccn3)c2)cc1 [Compound 1162, (2R,3R,4R,5S)-1-{2-[4-(2-{[3-chloro-5-(pyrimidin-2-yl)phenyl]amino}ethyl)phenyl]ethyl}-2-(hydroxymethyl)piperidine-3,4,5-triol]",IC50,[1],138 nM
same,IC50,[2],476 nM
same,IC50,[3]; [6],< 1 nM
same,IC50,[4],62 nM
same,IC50,[5],2680 nM
"OC[C@@H]1[C@@H](O)[C@H](O)[C@@H](O)CN1CCCCCCNc1ccc(-c2ncco2)cc1Cl [Compound 1203, (2R,3R,4R,5S)-1-(6-{[2-chloro-4-(1,3-oxazol-2-yl)phenyl]amino}hexyl)-2-(hydroxymethyl)piperidine-3,4,5-triol]",IC50,[1],< 1 nM
same,IC50,[2],11 nM
same,IC50,[3]; [6],< 1 nM
same,IC50,[4],40 nM
same,IC50,[5],787 nM
"COc1cc(NCCc2ccc(CCN3C[C@H](O)[C@@H](O)[C@H](O)[C@H]3CO)cc2)cc(-c2cccnn2)c1 [Compound 1157, (2R,3R,4R,5S)-2-(hydroxymethyl)-1-{2-[4-(2-{[3-methoxy-5-(pyridazin-3-yl)phenyl]amino}ethyl)phenyl]ethyl}piperidine-3,4,5-triol]",IC50,[1],107 nM
same,IC50,[2],228 nM
same,IC50,[3]; [6],4 nM
same,IC50,[4],292 nM
same,IC50,[5],4590 nM
"COc1cc(CC2CCOC2)cc(NCCCCCCN2C[C@H](O)[C@@H](O)[C@H](O)[C@H]2CO)c1 (stereo partly drawn) [Compound 1141, (2R,3R,4R,5S)-2-(hydroxymethyl)-1-[6-({3-methoxy-5-[(oxolan-3-yl)methyl]phenyl}amino)hexyl]piperidine-3,4,5-triol]",IC50,[1],43 nM
same,IC50,[2],696 nM
same,IC50,[3]; [6],139 nM
same,IC50,[4],188 nM
same,IC50,[5],8060 nM
"CS(=O)(=O)c1cc(NCc2ccc(CN3C[C@H](O)[C@@H](O)[C@H](O)[C@H]3CO)cc2)cc(-c2cccnn2)c1 [Compound 1058, (2R,3R,4R,5S)-2-(hydroxymethyl)-1-{[4-({[3-methanesulfonyl-5-(pyridazin-3-yl)phenyl]amino}methyl)phenyl]methyl}piperidine-3,4,5-triol]",IC50,[1],8 nM
same,IC50,[2],46 nM
same,IC50,[3]; [6],114 nM
same,IC50,[4],78 nM
same,IC50,[5],> 100000 nM
"COc1cc(CN2CCCO2)cc(NCCCCCCN2C[C@H](O)[C@@H](O)[C@H](O)[C@H]2CO)c1 [Compound 1182, (2R,3R,4R,5S)-2-(hydroxymethyl)-1-[6-({3-methoxy-5-[(1,2-oxazolidin-2-yl)methyl]phenyl}amino)hexyl]piperidine-3,4,5-triol]",IC50,[1],26 nM
same,IC50,[2],179 nM
same,IC50,[3]; [6],2 nM
same,IC50,[4],33 nM
same,IC50,[5],6130 nM
"O=Cc1cc(NCCCCCCN2C[C@H](O)[C@@H](O)[C@H](O)[C@H]2CO)cc(-c2ncccn2)c1 [Compound 1129, 3-(pyrimidin-2-yl)-5-({6-[(2R,3R,4R,5S)-3,4,5-trihydroxy-2-(hydroxymethyl)piperidin-1-yl]hexyl}amino)benzaldehyde]",IC50,[1],5 nM
same,IC50,[2],56 nM
same,IC50,[3]; [6],7 nM
same,IC50,[4],28 nM
same,IC50,[5],2730 nM
"[N-]=[N+]=Nc1ccc(NCC/C=C/CCN2C[C@H](O)[C@@H](O)[C@H](O)[C@H]2CO)c([N+](=O)[O-])c1 [Compound 1260, (2R,3R,4R,5S)-1-[(3E)-6-[(4-azido-2-nitrophenyl)amino]hex-3-en-1-yl]-2-(hydroxymethyl)piperidine-3,4,5-triol]",IC50,[1],< 1 nM
same,IC50,[2],29 nM
same,IC50,[3],15 nM
same,IC50,[4],44 nM
same,IC50,[5],1560 nM
